Source: publication PMC13303826, “Nicotinonitrile based dual inhibitors of tubulin and topoisomerase II exhibit potent anticancer activity” (Scientific Reports, 2026)

Columns and labels:
HCT116 cells = test: LDH release cytotoxicity assay, HCT116; format: cell-based; settings: Homo sapiens, HCT-116, 48 h, mean ± SD, read-out: In vitro cytotoxicity IC50 µM ± SD, HCT116
Method: (§1) HepG2 (Human liver carcinoma), HCT116 (human colorectal carcinoma), MCF7 (human breast adenocarcinoma), and the normal human skin fibroblast (BJ-1) cell lines were purchased from the american type culture collection (Rockville, MD, USA) and maintained in RPMI-1640 medium which was supplemented with 10% heat-inactivated FBS, 100U/ml penicillin and 100U/ml streptomycin. The cells were grown at 37 °C in a humidified atmosphere of 5% CO2. All experiments were conducted thrice in triplicate (n = 3). All the values were represented as means ± SD. Significant differences between the means of parameters as well as IC50s were determined by probit analysis using SPSS software program (SPSS Inc., Chicago, IL).
(§2) To determine the effect of each synthesized compound on membrane permeability in HepG2, MCF-7 and HCT116 cancer cell lines as well as BJ-1 normal cell line, a lactate dehydrogenase (LDH) release assay was used[29]–[33]. The cells were seeded in 24-well culture plates at a density of 1 × 10^4 cells/well in 500 µL volume and allowed to grow for 18 h before treatment. After treatment with a series of different concentrations of each compound or DOX (positive control), the plates were incubated for 48 h. Then, the supernatant (40 µL) was transferred to a new 96 well to determine LDH release and 6% triton X-100 (40 µL) was added to the original plate for determination of total LDH. An aliquot of 0.1 M potassium phosphate buffer (100 µL, pH 7.5) containing 4.6 mM pyruvic acid was mixed to the supernatant using repeated pipetting. Then, 0.1 M potassium phosphate buffer (100 µL, pH 7.5) containing 0.4 mg/mL reduced β-NADH was added to the wells. The kinetic changes were read for 1 min using ELISA microplate reader in absorbance at wavelength 340 nm. This procedure was repeated with 40 µL of the total cell lysate to determine total LDH. The percentage of LDH release was determined by dividing the LDH released into the media by the total LDH following cell lysis in the same well. The cell Passage numbers for MCF 7 = P13, Hep G2 = P15, HCT 116 = P 9.
(§3) All experiments were conducted in triplicate (n = 3). All the values were represented as mean ± SD. Significant differences between the means of parameters as well as IC50s were determined by probit analysis using SPSS software program (SPSS Inc., Chicago, IL).

MCF7 cells = test: LDH release cytotoxicity assay, MCF7; format: cell-based; settings: Homo sapiens, 48 h, mean ± SD, read-out: In vitro cytotoxicity IC50 µM ± SD, MCF7
Method: as §1, §2, §3

HepG2 cells = test: LDH release cytotoxicity assay, HepG2; format: cell-based; settings: Homo sapiens, 48 h, mean ± SD, read-out: In vitro cytotoxicity IC50 µM ± SD, HepG2
Method: as §1, §2, §3

BJ1 normal cells = test: LDH release cytotoxicity assay, normal skin fibroblasts BJ1; format: cell-based, human; settings: non-tumor BJ1 fibroblasts
Method: as §1, §2, §3

beta-tubulin = test: Inhibition of tubulin polymerization in MCF-7 cells (beta-tubulin SimpleStep ELISA); format: cell-based, human; settings: MCF7 cells, concentration not given
From the text: Beta-tubulin in vitro simple step ELISA® (Enzyme-Linked Immunosorbent Assay) kit is designed for quantitative measurement of beta-tubulin protein in human cell and tissue homogenate extract samples.
The SimpleStep ELISA® employs an affinity tag labeled capture antibody and a reporter conjugated detector antibody which immunocapture the sample analyte in solution. This entire complex (capture antibody/analyte/detector antibody) is in turn immobilized via immunoaffinity of an anti-tag antibody coating the well. To perform the assay, samples or standards are added to the wells, followed by the antibody mix. After incubation, the wells are washed to remove unbound material. TMB development solution is added and during incubation is catalyzed by horseradish peroxidase (HRP), generating blue coloration. This reaction is then stopped by addition of stop solution completing any color change from blue to yellow. Signal is generated proportionally to the amount of bound analyte and the intensity is measured at 450 nm. Optionally, instead of the endpoint reading, development of TMB can be recorded kinetically at 600 nm. The concentration of beta-tubulin protein in the samples is determined by comparing the optical density (OD) of the samples to the standard curve. Each experiment was repeated two times (Table 2).

Topo II = test: Inhibition of topoisomerase II in MCF-7 cells (TOP2B sandwich ELISA); format: cell-based, human; settings: MCF7 cells, concentration not given
Method: Mouse TOP2B/Topoisomerase II Beta ELISAKit (Sandwich ELISA) is designed for the quantitative measurement of Topo II enzyme.
This assay is based on the sandwich ELISA principle. Each well of the supplied microtiter plate has been pre-coated with a target specific capture antibody. Standards or samples are added to the wells, and the target antigen binds to the capture antibody. Unbound standard or sample is washed away. A biotin-conjugated detection antibody is then added which binds to the captured antigen. Unbound detection antibody is washed away. An avidin-horseradish peroxidase (HRP) conjugate is then added which binds to the biotin. Unbound avidin-HRP conjugate is washed away. A TMB substrate is then added which reacts with the HRP enzyme resulting in color development. A sulfuric acid stop solution is added to terminate color development reaction and then the optical density (OD) of the well is measured at a wavelength of 450 nm ± 2 nm. An OD standard curve is generated using known antigen concentrations; the OD of an unknown sample can then be compared to the standard curve to determine its antigen concentration. Each experiment was repeated two times (Table 3).

COc1ccc(-c2cc(-c3cc(OC)c(OC)c(OC)c3)c(C#N)c(Cl)n2)cc1OC [Compound 19, 2-Chloro-6-(3,4-dimethoxyphenyl)-4-(3,4,5trimethoxyphenyl)nicotinonitrile]
IC50 (HCT116 cells): 44.1 ± 4.7 µM
IC50 (MCF7 cells): 2.7 ± 0.2 µM
IC50 (HepG2 cells): 24.1 ± 2.2 µM

COc1ccc(-c2cc(-c3cc(OC)c(OC)c(OC)c3)c(C#N)c(N=P(c3ccccc3)(c3ccccc3)c3ccccc3)n2)cc1 [Compound 34, 6-(4-Methoxyphenyl)-4-(3,4,5-trimethoxyphenyl)-2-((triphenyl-λ^5-phosphaneylidene)amino)-nicotinonitrile]
IC50 (HCT116 cells): 49.9 ± 4.2 µM
IC50 (MCF7 cells): 5.1 ± 0.2 µM
IC50 (HepG2 cells): 28.4 ± 2.3 µM

COc1ccc(-c2cc(-c3ccc(OC)c(OC)c3)nc(N=P(c3ccccc3)(c3ccccc3)c3ccccc3)c2C#N)cc1 [Compound 39, 6-(3,4-Dimethoxyphenyl)-4-(4-methoxyphenyl)-2-((triphenyl-λ^5-phosphaneylidene)amino)-nicotinonitrile]
IC50 (HCT116 cells): 32.5 ± 3.2 µM
Cytotoxicity / selectivity toward BJ1 normal cells (in words) (BJ1 normal cells): good selectivity
IC50 (MCF7 cells): 3 ± 0.1 µM
IC50 (HepG2 cells): 12.6 ± 1.1 µM

COc1cc(-c2cc(-c3cc(OC)c(OC)c(OC)c3)n3nnnc3c2C#N)cc(OC)c1OC [Compound 28, 5,7-bis(3,4,5-trimethoxyphenyl)tetrazolo[1,5-a]pyridine-8-carbonitrile]
IC50 (HCT116 cells): 78.6 ± 5.9 µM
IC50 (MCF7 cells): 3 ± 0.2 µM
IC50 (HepG2 cells): 29.9 ± 3.1 µM

COc1ccc(-c2cc(-c3ccc(OC)c(OC)c3)n3nnnc3c2C#N)cc1 [Compound 31, 5-(3,4-dimethoxyphenyl)-7-(4-methoxyphenyl)tetrazolo[1,5-a]pyridine-8-carbonitrile]
IC50 (HCT116 cells): 31 ± 2.5 µM
IC50 (MCF7 cells): 3.1 ± 0.3 µM
IC50 (HepG2 cells): 25.7 ± 2.4 µM

COc1cc(OC)cc(-c2cc(-c3ccc(OC)c(OC)c3)n3nnnc3c2C#N)c1 [Compound 29, 5-(3,4-dimethoxyphenyl)-7-(3,5-dimethoxyphenyl)tetrazolo[1,5-a]pyridine-8-carbonitrile]
IC50 (HCT116 cells): 55.4 ± 5.1 µM
IC50 (MCF7 cells): 3.1 ± 0.3 µM
IC50 (HepG2 cells): 27.1 ± 2.5 µM

COc1ccc(-c2cc(-c3cc(OC)c(OC)c(OC)c3)c(C#N)c3nnnn23)cc1OC [Compound 27, 5-(3,4-dimethoxyphenyl)-7-(3,4,5-trimethoxyphenyl)tetrazolo[1,5-a]pyridine-8-carbonitrile]
IC50 (HCT116 cells): 60.1 ± 6.2 µM
tubulin polymerization % inhibition (beta-tubulin): 49.8%
IC50 (MCF7 cells): 2.5 ± 0.2 µM
IC50 (HepG2 cells): 25.5 ± 2.4 µM

COc1cccc2c1C(=O)c1c(O)c3c(c(O)c1C2=O)C[C@@](O)(C(=O)CO)C[C@@H]3O[C@H]1C[C@H](N)[C@H](O)[C@H](C)O1 [DOX, doxorubicin, reference compound]
IC50 (HCT116 cells): 12.5 ± 1.5 µM
Topo II % inhibition (Topo II): 81.6%
IC50 (MCF7 cells): 2.8 ± 0.3 µM
IC50 (HepG2 cells): 2.6 ± 0.2 µM

COc1ccc(-c2cc(-c3cc(OC)c(OC)c(OC)c3)c(C#N)c(N=P(c3ccccc3)(c3ccccc3)c3ccccc3)n2)cc1OC [Compound 35, 6-(3,4-Dimethoxyphenyl)-4-(3,4,5-trimethoxyphenyl)-2-((triphenyl-λ^5-phosphaneylidene)-amino)nicotinonitrile]
IC50 (HCT116 cells): 57.6 ± 4.1 µM
tubulin polymerization % inhibition (beta-tubulin): 61.9%
IC50 (MCF7 cells): 2.7 ± 0.1 µM
IC50 (HepG2 cells): 32.4 ± 3.1 µM

COc1cc(-c2cc(-c3ccco3)c(C)c3nnnn23)cc(OC)c1OC [Compound 32, 7-(furan-2-yl)-8-methyl-5-(3,4,5-trimethoxyphenyl)tetrazolo[1,5-a]pyridine]
IC50 (HCT116 cells): 98 ± 8.6 µM
IC50 (MCF7 cells): 3 ± 0.3 µM
IC50 (HepG2 cells): 28.2 ± 2.5 µM

COc1ccc(-c2cc(-c3cc(OC)cc(OC)c3)c(C#N)c3nnnn23)cc1 [Compound 30, 7-(3,5-dimethoxyphenyl)-5-(4-methoxyphenyl)tetrazolo[1,5-a]pyridine-8-carbonitrile]
IC50 (HCT116 cells): 40.5 ± 3.3 µM
IC50 (MCF7 cells): 3.2 ± 0.2 µM
IC50 (HepG2 cells): 27.1 ± 2.2 µM

COc1ccc(-c2cc(-c3ccc(OC)c(OC)c3)nc(Cl)c2C#N)cc1 [Compound 23, 2-Chloro-6-(3,4-dimethoxyphenyl)-4-(4-methoxyphenyl)nicotinonitrile]
IC50 (HCT116 cells): 49.1 ± 5.1 µM
IC50 (MCF7 cells): 2.6 ± 0.2 µM
IC50 (HepG2 cells): 29.4 ± 2.3 µM

COc1cc(-c2cc(-c3cc(OC)c(OC)c(OC)c3)c(C#N)c(N=P(c3ccccc3)(c3ccccc3)c3ccccc3)n2)cc(OC)c1OC [Compound 36, 4,6-Bis(3,4,5-trimethoxyphenyl)-2-((triphenyl-λ^5-phosphaneylidene)amino)nicotinonitrile]
IC50 (HCT116 cells): 41.7 ± 4.1 µM
IC50 (MCF7 cells): 3 ± 0.1 µM
IC50 (HepG2 cells): 25.2 ± 2.1 µM

COc1ccc(-c2cc(-c3cc(OC)c(OC)c(OC)c3)c(C#N)c(Cl)n2)cc1 [Compound 18, 2-Chloro-6-(4-methoxyphenyl)-4-(3,4,5-trimethoxyphenyl)nicotinonitrile]
IC50 (HCT116 cells): 45.6 ± 4.1 µM
IC50 (MCF7 cells): 2.9 ± 0.2 µM
IC50 (HepG2 cells): 26.2 ± 2.5 µM

COc1cc(-c2cc(-c3ccco3)c(C#N)c(Cl)n2)cc(OC)c1OC [Compound 24, 2-Chloro-4-(furan-2-yl)-6-(3,4,5-trimethoxyphenyl)nicotinonitrile]
IC50 (HCT116 cells): 49.3 ± 4.2 µM
tubulin polymerization % inhibition (beta-tubulin): 55.4%
Topo II % inhibition (Topo II): 55.3%
IC50 (MCF7 cells): 2.5 ± 0.2 µM
IC50 (HepG2 cells): 22.7 ± 2.1 µM

COc1cc(-c2cc(-c3ccco3)c(C#N)c(N=P(c3ccccc3)(c3ccccc3)c3ccccc3)n2)cc(OC)c1OC [Compound 40, 4-(Furan-2-yl)-6-(3,4,5-trimethoxyphenyl)-2-((triphenyl-λ^5-phosphaneylidene)amino)nicotino-nitrile]
IC50 (HCT116 cells): 55.7 ± 4.9 µM
IC50 (MCF7 cells): 5.7 ± 0.2 µM
IC50 (HepG2 cells): 27.7 ± 2.1 µM

Cc1cc(-c2ccco2)c(C#N)c2nnnn12 [Compound 33, 7-(furan-2-yl)-5-methyltetrazolo[1,5-a]pyridine-8-carbonitrile]
IC50 (HCT116 cells): 40.7 ± 3.9 µM
tubulin polymerization % inhibition (beta-tubulin): 68.9%
IC50 (MCF7 cells): 2.6 ± 0.2 µM
IC50 (HepG2 cells): 25.2 ± 2.5 µM

COc1cc(OC)cc(-c2cc(-c3ccc(OC)c(OC)c3)nc(Cl)c2C#N)c1 [Compound 21, 2-Chloro-6-(3,4-dimethoxyphenyl)-4-(3,5-dimethoxyphenyl)nicotinonitrile]
IC50 (HCT116 cells): 48.1 ± 4.2 µM
IC50 (MCF7 cells): 2.8 ± 0.2 µM
IC50 (HepG2 cells): 12.3 ± 1.5 µM

COc1cc(OC)cc(-c2cc(-c3ccc(OC)c(OC)c3)nc(N=P(c3ccccc3)(c3ccccc3)c3ccccc3)c2C#N)c1 [Compound 37, 6-(3,4-Dimethoxyphenyl)-4-(3,5-dimethoxyphenyl)-2-((triphenyl-λ^5-phosphaneylidene)amino)-nicotinonitrile]
IC50 (HCT116 cells): 36 ± 3.3 µM
tubulin polymerization % inhibition (beta-tubulin): 74.3%
Topo II % inhibition (Topo II): 82.4%
IC50 (MCF7 cells): 2.6 ± 0.1 µM
IC50 (HepG2 cells): 29.3 ± 2.5 µM

COc1ccc(-c2cc(-c3cc(OC)cc(OC)c3)c(C#N)c(Cl)n2)cc1 [Compound 22, 2-Chloro-4-(3,5-dimethoxyphenyl)-6-(4-methoxyphenyl)nicotinonitrile]
IC50 (HCT116 cells): 36.8 ± 3.5 µM
tubulin polymerization % inhibition (beta-tubulin): 70.9%
Topo II % inhibition (Topo II): 42%
IC50 (MCF7 cells): 2.6 ± 0.2 µM
IC50 (HepG2 cells): 25.3 ± 2.3 µM
